The data set relates to rodent carcinogenicity bioassays, tumor incidence. In words: CCRIS carcinogenicity studies. An outline of the steps: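 NCI-built, expert-reviewed records of carcinogenicity and related test outcomes (mutagenicity, tumor promotion/inhibition) compiled from published and report sources, historical span 1985-2011, not updated.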

Experimental findings from PubChem BioAssay AID1259411 (Chemical Carcinogenesis Research Information System (CCRIS), 2018) are described below.

Structures are written as SMILES. Activity calls are given as the source filed them. No rule for the calls is given here.

As to `CNC(=O)N(C)N=O`, the carcinogen call was “active; positive” (Species: RAT, Strain/Sex: F344/FEMALE, Route: GAVAGE, Dose: 0, 20, 40 UMOL/WK IN CORN OIL/ETHYL ACETATE (2: 1) FOR 30 WK FOR TOTAL DOSES OF 0, 0.6, 1.2 MMOL (STUDY DURATION: LIFETI, Dose: 0, 20, 40 UMOL/WK IN CORN OIL/ETHYL ACETATE (2: 1) FOR 30 WK FOR TOTAL DOSES OF 0, 0.6, 1.2 MMOL (STUDY DURATION: LIFETI, Tumor Site: Type of Lesion: NERVOUS SYSTEM: TUMOR); “active; positive” (Species: RAT, Strain/Sex: F344/FEMALE, Route: INTRAVESICULAR, Dose: 0, 2.4 MG 2/WK FOR 30 WK (STUDY DURATION: LIFETIME), Tumor Site: Type of Lesion: BRAIN: TUMOR, KIDNEY: TUMOR); “active; positive” (Species: RAT, Strain/Sex: F344/FEMALE, Route: ORAL, Dose: 0, 20, 40 UMOL/WK IN DRINKING WATER FOR 30 WK FOR TOTAL DOSES OF 0, 0.6, 1.2 MMOL (STUDY DURATION: LIFETIME), Dose: 0, 20, 40 UMOL/WK IN DRINKING WATER FOR 30 WK FOR TOTAL DOSES OF 0, 0.6, 1.2 MMOL (STUDY DURATION: LIFETIME), Tumor Site: Type of Lesion: UTERUS: TUMOR, THYROID: FOLLICULAR CELL TUMOR, NERVOUS SYSTEM: TUMOR, Tumor Site: Type of Lesion: UTERUS: TUMOR, THYROID: FOLLICULAR CELL TUMOR, NERVOUS SYSTEM: TUMOR); “active; positive” (Species: RAT, Strain/Sex: F344/MALE, Route: GAVAGE, Dose: 0, 20, 40 UMOL/WK IN CORN OIL/ETHYL ACETATE (2: 1) FOR 30 WK FOR TOTAL DOSES OF 0, 0.6, 1.2 MMOL (STUDY DURATION: LIFETI, Dose: 0, 20, 40 UMOL/WK IN CORN OIL/ETHYL ACETATE (2: 1) FOR 30 WK FOR TOTAL DOSES OF 0, 0.6, 1.2 MMOL (STUDY DURATION: LIFETI, Tumor Site: Type of Lesion: NERVOUS SYSTEM: TUMOR, TESTIS: MESOTHELIOMA); “active; positive” (Species: RAT, Strain/Sex: F344/MALE, Route: ORAL, Dose: 0, 20, 40 UMOL/WK IN DRINKING WATER FOR 30 WK FOR TOTAL DOSES OF 0, 0.6, 1.2 MMOL (STUDY DURATION: LIFETIME), Dose: 0, 20, 40 UMOL/WK IN DRINKING WATER FOR 30 WK FOR TOTAL DOSES OF 0, 0.6, 1.2 MMOL (STUDY DURATION: LIFETIME), Tumor Site: Type of Lesion: TESTIS: MESOTHELIOMA, NERVOUS SYSTEM: TUMOR).

Turning to `NCCN`, the carcinogen call was “inactive; negative” (Species: MOUSE, Strain/Sex: C3H/MALE, Route: DERMAL, Dose: 0, 25 µL OF A 1% DEIONIZED WATER SOLUTION 3/WK FOR LIFESPAN (STUDY DURATION: LIFESPAN)); “inactive; negative” (Species: RAT, Strain/Sex: F344/FEMALE, Route: ORAL, Dose: 0, 20, 100, 350 MG/KG/D IN DIET FOR 104 WK (STUDY DURATION: 104 WK), Dose: 0, 20, 100, 350 MG/KG/D IN DIET FOR 104 WK (STUDY DURATION: 104 WK)); “inactive; negative” (Species: RAT, Strain/Sex: F344/MALE, Route: ORAL, Dose: 0, 20, 100, 350 MG/KG/D IN DIET FOR 104 WK (STUDY DURATION: 104 WK), Dose: 0, 20, 100, 350 MG/KG/D IN DIET FOR 104 WK (STUDY DURATION: 104 WK)).

With `O=[N+]([O-])c1ccc2c(ccc3c4ccccc4ccc23)c1`, the carcinogen call was “inactive; negative” (Species: MOUSE, Strain/Sex: ICR/FEMALE, Route: INTRAPERITONEAL, Dose: 0, 100 NMOL (TOTAL DOSE) ADMINISTERED IN 3 SUBDOSES OF 1/7, 2/7, AND 4/7 ON DAYS 1, 8 AND 15 OF LIFE, RESPECTIVELY (STUD) and “inactive; negative” (Species: MOUSE, Strain/Sex: ICR/MALE, Route: INTRAPERITONEAL, Dose: 0, 100 NMOL (TOTAL DOSE) ADMINISTERED IN 3 SUBDOSES OF 1/7, 2/7, AND 4/7 ON DAYS 1, 8 AND 15 OF LIFE, RESPECTIVELY (STUD).

For `Nc1ccc2nc3ccccn3c2n1`, the carcinogen call is “active; positive” (Species: MOUSE, Strain/Sex: CDF1/FEMALE, Route: ORAL, Dose: 0, 0.05% IN DIET FOR UP TO 685 D (STUDY DURATION: 685 D), Tumor Site: Type of Lesion: LIVER: HEPATOCELLULAR ADENOMA OR CARCINOMA, BLOOD VESSELS: HEMANGIOENDOTHELIOMA OR HEMANGIOENDOTHELIAL SARCOMA); “active; positive” (Species: MOUSE, Strain/Sex: CDF1/MALE, Route: ORAL, Dose: 0, 0.05% IN DIET FOR UP TO 685 D (STUDY DURATION: 685 D), Tumor Site: Type of Lesion: LIVER: HEPATOCELLULAR ADENOMA OR CARCINOMA, BLOOD VESSELS: HEMANGIOENDOTHELIOMA OR HEMANGIOENDOTHELIAL SARCOMA); “active; positive” (Species: RAT, Strain/Sex: F344/FEMALE, Route: ORAL, Dose: 0, 500 PPM IN DIET (AV DAILY DOSE: 4.9 MG) FOR 24 MO (STUDY DURATION: 104 WK), Tumor Site: Type of Lesion: SMALL INTESTINE: ADENOMA OR ADENOCARCINOMA OR MUCINOUS CARCINOMA, LARGE INTESTINE: ADENOMA OR ADENOCARCINOMA OR MUCINOUS); “active; positive” (Species: RAT, Strain/Sex: F344/MALE, Route: ORAL, Dose: 0, 500 PPM IN DIET (AV DAILY DOSE: 7.5 MG) FOR 24 MO (STUDY DURATION: 104 WK), Tumor Site: Type of Lesion: LIVER: HEPATOCELLULAR CARCINOMA OR ANAPLASTIC HEPATOMA, SMALL INTESTINE: ADENOMA OR ADENOCARCINOMA OR MUCINOUS CARCINOMA).

As to `CCCc1cc(=O)[nH]c(=S)[nH]1`, the carcinogen call runs as follows: (Species: HAMSTER, Route: ORAL, Tumor Site: Type of Lesion: THYROID GLAND) “active; positive”; (Species: MOUSE, Route: ORAL, Tumor Site: Type of Lesion: PITUITARY GLAND, THYROID GLAND) “active; positive”; (Species: RAT, Route: ORAL, Tumor Site: Type of Lesion: THYROID GLAND) “active; positive”.

For `CCSC(=O)N(CC(C)C)CC(C)C`, the carcinogen call was “inactive; negative; probable purity of 97-98%” (Species: Mouse, Strain/Sex: CD-1/Female (50/sex/group), Route: Oral, Dose: 0, 20, 80, 320 mg/kg/d in diet for 2 yrs, Dose: 0, 20, 80, 320 mg/kg/d in diet for 2 yrs); “inactive; negative; probable purity of 97-98%” (Species: Mouse, Strain/Sex: CD-1/Male (50/sex/group), Route: Oral, Dose: 0, 20, 80, 320 mg/kg/d in diet for 2 yrs, Dose: 0, 20, 80, 320 mg/kg/d in diet for 2 yrs); “inactive; negative; probable purity of 97-98% (there were probably 10 animals in each inte” (Species: Rat, Strain/Sex: Sprague-Dawley/Female (70/sex/group), Route: Oral, Dose: 0, 50, 100, 200, 400 mg/kg/d in diet for 12, 18, or 24 mo, Dose: 0, 50, 100, 200, 400 mg/kg/d in diet for 12, 18, or 24 mo); “inactive; negative; probable purity of 97-98% (there were probably 10 animals in each inte” (Species: Rat, Strain/Sex: Sprague-Dawley/Male (70/sex/group), Route: Oral, Dose: 0, 50, 100, 200, 400 mg/kg/d in diet for 12, 18, or 24 mo, Dose: 0, 50, 100, 200, 400 mg/kg/d in diet for 12, 18, or 24 mo).

With `Cc1ccc2c(c1)C1=Nc3ccccc3C3=Nc4ccccc4C(=N2)N31`, the carcinogen call (Species: MOUSE, Strain/Sex: ALBINO/MALE, FEMALE, Route: DERMAL, Tumor Site: Type of Lesion: SKIN: TUMOR) is “active; positive”.

Turning to `CCC(O)OC` (stereo unspecified), the carcinogen call is, setting by setting: (Species: MOUSE, Strain/Sex: B6C3F1/FEMALE, Route: INHALATION, Dose: 0, 300, 1000, 3000 PPM 6 HR/D 5 D/WK FOR 2 YR (STUDY DURATION: 2 YR), Dose: 0, 300, 1000, 3000 PPM 6 HR/D 5 D/WK FOR 2 YR (STUDY DURATION: 2 YR)) “inactive; negative”; (Species: MOUSE, Strain/Sex: B6C3F1/MALE, Route: INHALATION, Dose: 0, 300, 1000, 3000 PPM 6 HR/D 5 D/WK FOR 2 YR (STUDY DURATION: 2 YR), Dose: 0, 300, 1000, 3000 PPM 6 HR/D 5 D/WK FOR 2 YR (STUDY DURATION: 2 YR)) “inactive; negative”; (Species: RAT, Strain/Sex: F344/FEMALE, Route: INHALATION, Dose: 0, 300, 1000, 3000 PPM 6 HR/D 5 D/WK FOR 2 YR (STUDY DURATION: 2 YR), Dose: 0, 300, 1000, 3000 PPM 6 HR/D 5 D/WK FOR 2 YR (STUDY DURATION: 2 YR)) “inactive; negative”; (Species: RAT, Strain/Sex: F344/MALE, Route: INHALATION, Dose: 0, 300, 1000, 3000 PPM 6 HR/D 5 D/WK FOR 2 YR (STUDY DURATION: 2 YR), Dose: 0, 300, 1000, 3000 PPM 6 HR/D 5 D/WK FOR 2 YR (STUDY DURATION: 2 YR)) “inactive; negative”.
